This note sets out measurements from PubChem BioAssay (NCI).

What all share (test): NCI anticancer screen, dose series, 48 h
Experiment [1] relates to SF-539 CNS.
Experiment [2] relates to HCT-116 colon.
Experiment [3] concerns SNB-75 CNS.
In experiment [4] the test system is NCI-H23 lung.
Experiment [5] concerns TK-10 renal.
Experiment [6] has as its system MCF7 breast.
The test system of experiment [7] is OVCAR-3 ovarian.
Experiment [8] relates to MALME-3M melanoma.
For experiment [9], the system named is K-562 leukemia.
Experiment [10] relates to PC-3 prostate.

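How tested: cells in 96-well plates exposed to compound for 48 hours at five concentrations. Abbreviation: GI50, concentration required for 50% inhibition of growth. TGI: concentration producing complete growth inhibition.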 A value given as a limit tells only on which side of the number the result lay.

With `CCN1C(=O)N(CC)C2C1NN=c1s/c(=C\c3ccccc3Br)c(=O)n12` (stereo not given), the GI50 was 0.0242 µM in [1]; 0.0302 µM in experiment [2]; 0.0262 µM in experiment [3]; 0.0552 µM in [4]; 12.5 µM in [5]; 0.0328 µM in [6]. In addition, the GI50 in experiment [7] is 0.0266 µM; in [8] it was 1.12 µM; in [9], 0.0329 µM; in [10], 0.0383 µM. In addition, the TGI in experiment [1] is 0.382 µM; in [2], 11.6 µM; in experiment [3] it was 2.22 µM; in experiment [4] it was 29.6 µM; in [5], above 100 µM; in [6] it was 16.5 µM. Besides, the TGI is 0.0764 µM in [7], 33.7 µM in experiment [8], above 100 µM in [9] and 44.5 µM in experiment [10].

With `CC1=CC(=O)C(O)C2(C)C1CC(O)C13COC4(C)C(OC(=O)C41)C(O)C23` (stereo not given), the GI50 in experiment [1] was 8.13 µM; in experiment [2], 4.11 µM; in experiment [3] it was 22 µM; in [4], 4.8 µM; in experiment [5] it was 12.1 µM; in [6], 3.95 µM. The GI50 in [7] is 19.5 µM; in experiment [8], 10.1 µM; in [9], 5.48 µM; in experiment [10], 26.4 µM. The TGI in [1] was 35.5 µM; in [2], 19.3 µM; in experiment [3], above 100 µM; in experiment [4] it was 18.6 µM; in experiment [5], 44.3 µM; in experiment [6], 21.9 µM. Moreover, the TGI in experiment [7] is 62.9 µM; in [8], 37.4 µM; in experiment [9] it was above 100 µM; in experiment [10], above 100 µM.

Consider `CCN(CCO)CC(C)Nc1ccc([N+](=O)[O-])c2sc3ccccc3c(=O)c12` (stereo not given), for which the GI50 in experiment [1] was 3.6 µM; in experiment [2], 0.996 µM; in experiment [3], 1.84 µM; in experiment [4] it was 1.78 µM; in experiment [5], 1.44 µM; in experiment [6] it was 0.436 µM. Moreover, the GI50 in [7] was 2.96 µM; in experiment [8] it was 0.421 µM; in experiment [9], 1.44 µM; in experiment [10], 1.33 µM. For the same compound, the TGI in [1] worked out at 19.2 µM; in experiment [2], 2.69 µM; in experiment [3], 12.6 µM; in [4] it was 6.4 µM; in experiment [5], 11.7 µM; in experiment [6] it was 4.15 µM. Besides, the TGI in experiment [7] is 12.3 µM; in experiment [8], 2.13 µM; in experiment [9], 6.71 µM; in experiment [10], 4.55 µM.

Regarding `COc1ccc(OC)c(C2SCC(=O)N2NC(=O)C(O)c2ccccc2)c1` (stereo not given), the GI50 in experiment [1], in [2], in experiment [3], in experiment [4], in [5] and in experiment [6] was above 100 µM each time. The GI50 in experiment [7], in experiment [8], in experiment [9] and in [10] was above 100 µM in each case. For the same compound, the TGI in [1], in experiment [2], in experiment [3], in experiment [4], in [5] and in experiment [6] was above 100 µM in each case. Further, the TGI in experiment [7], in experiment [8], in experiment [9] and in experiment [10] was above 100 µM in each case.

As to `COc1ccc(OC)c(Cn2cc3c(c2)-c2oncc2CC3)c1`, the GI50 in experiment [1] is 2.28 µM; in experiment [2] it was 3.32 µM; in [3], 1.75 µM; in [4] it was 3.8 µM; in experiment [5] it was 4.23 µM; in experiment [6], 3.02 µM. Further, the GI50 was 2.29 µM in experiment [7], 3.03 µM in experiment [8], 0.762 µM in experiment [9] and 5.89 µM in experiment [10]. Also, the TGI in experiment [1] was 7.63 µM; in experiment [2] it was 39 µM; in [3], 6.56 µM; in [4], above 90.2 µM; in [5] it was above 100 µM; in [6], above 81.9 µM. The TGI was 5.98 µM in experiment [7], 40.7 µM in [8], above 57.8 µM in experiment [9] and above 100 µM in experiment [10].

On to `Cc1ccc(C2=Nc3ccccc3SC(c3cccc([N+](=O)[O-])c3)C2)cc1` (stereo not given), for which the TGI is 19 µM in experiment [1]; 20.8 µM in experiment [2]; 38.6 µM in [3]; above 100 µM in experiment [4]; 86.8 µM in experiment [5]; above 100 µM in experiment [6]. Besides, the TGI in experiment [7] was 60 µM; in experiment [8] it was above 100 µM; in experiment [9], 23.8 µM; in [10], above 100 µM.

In the case of `O=C1NC(=O)C(c2cccc(Cl)c2)=C1Nc1ccc(O)c(Cl)c1`, the GI50 in [1] is 7.71 µM; in experiment [2], 9.6 µM; in [3], 6.96 µM; in experiment [4], 12.9 µM; in experiment [5], 8.66 µM; in experiment [6], 10.4 µM. The GI50 in [7] was 7.86 µM; in experiment [8], 15.9 µM; in [9], 11.7 µM; in experiment [10] it was 12.2 µM. Also, the TGI was above 21.9 µM in experiment [1]; above 25 µM in experiment [2]; above 20.4 µM in experiment [3]; above 25 µM in experiment [4]; above 25 µM in experiment [5]; above 25 µM in experiment [6]. Further, the TGI in experiment [7] is above 21.9 µM; in experiment [8], above 25 µM; in experiment [9], above 25 µM; in experiment [10], above 25 µM.
